Values quoted from earlier work in patent US6605639B1, “Ligands of nuclear receptor” (Nuclear Receptor Research, Ltd., priority 1998, dated 2003).

How the values were obtained:
[1] = test system: patients; settings: at the normal dose; cited from earlier work
[2] = test system: hereditary obese diabetic mice ob/ob and db/db; settings: oral; cited from earlier work

| Compound | patients with hepatopathy [1] | blood glucose levels, serum neutral fat levels and serum insulin levels [2] |
| --- | --- | --- |
| Cc1c(C)c2c(c(C)c1O)CCC(C)(COc1ccc(CC3SC(=O)NC3=O)cc1)O2 (centres unmarked) [troglitazone] | about 2% | – |
| C=C(c1ccc(C(=O)O)cc1)c1cc2c(cc1C)C(C)(C)CCC2(C)C [LGD1069] | – | drastically lower |
